Measured values: US20110105441A1, “Stable Orally Disintegrating Tablets Having Low Superdisintegrant” (FMC CORPORATION, priority 2009, published 2011)

Key:
[1] = Dissolution of API from ODTs (USP 31 guidelines); assay type: physicochemical; details: 70-80N hardness
Description: Dissolution properties of the ODTs were determined by following USP 31 guidelines for each model APIs. The percent of drug released at predetermined time intervals were calculated and plotted against the sampling time to obtain the release profiles. ODTs that fall within a 70-80N hardness range were studied.

[2] = cited from earlier work
[3] = cited from earlier work; remark: listed apart in the source

## CC(=O)Nc1ccc(O)cc1 [Acetaminophen]
[1]; acetaminophen ODTs
  time to full release of API from ODT: ≤ 10 min
[2]
  pKa: 9.2
[3]
  solubility in water (in words): highly water soluble

## Cn1c(=O)c2nc[nH]c2n(C)c1=O [Theophylline]
[1]; theophylline ODTs
  time to full release of API from ODT: fully released at five minutes
[2]
  pKa: 8.7
[3]; neutral distilled water at 25° C.
  solubility in water: about 8 mg/mL

## OC[C@@H](O)[C@@H](O)[C@H](O)[C@H](O)CO [Spray dried mannitol, mannitol]
[3]; at 20° C.
  time in which 5 g dissolves in 150 mL of water: approximately 5 sec

## CN(C)CC[C@@H](c1ccc(Cl)cc1)c1ccccn1.O=C(O)/C=C\C(=O)O [CPM, Chlorpheniramine Maleate]
[1]; CPM ODTs
  time to full release of API from ODT: ≤ 5 min
[2]
  pKa: 9.2

## CC(=O)Oc1ccccc1C(=O)O [Aspirin]
[3]
  solubility in water (in words): highly water soluble

## COc1ccc2cc([C@H](C)C(=O)O)ccc2c1 [Naproxen]
[1]; naproxen ODTs
  time to full release of API from ODT: ≤ 10 min
